In ChEMBL document CHEMBL5376002, “A Hybrid Antimicrobial Peptide Targeting Staphylococcus aureus with a Dual Function of Inhibiting Quorum Sensing Signaling and an Antibacterial Effect” (J Med Chem, 2023):
Converted amounts (≈) assume the structure as drawn. The source made the active and inactive calls. The calls are words filed in the database; no cut-off is given here. Numbered stars: 1 amine (or outer) side, 2 acyl side, 3 side chain; on linkers, the order of the positions; unused ones are H or OH. Bridge positions count the residues as written; N and C are the ends. Square brackets hold non-standard residues; d marks the D form. Peptide text beside a SMILES is read from it. I, II: the chains in the order shown. X1 = O=C1CC([*:2])C(=O)N1CCCCCC(=O)[*:1]; Dab = NCC[C@H](N)C(=O)O

How the values were obtained:
Staphylococcus aureus [1] = assay: Bactericidal activity against Staphylococcus aureus ATCC 6538p assessed as inhibition of bacterial growth incubated for 18 to 24 hrs; type: functional; details: time 18-24 hrs
Staphylococcus aureus [2] = assay: Bactericidal activity against Staphylococcus aureus ATCC 12600 assessed as inhibition of bacterial growth incubated for 18 to 24 hrs; type: functional; details: time 18-24 hrs
[3] = test system: Staphylococcus saprophyticus; assay: Antibacterial activity against Staphylococcus saprophyticus ATCC BAA-750 assessed as inhibition of bacterial growth incubated for 18 to 24 hrs; type: functional; details: time 18-24 hrs
Escherichia coli [4] = assay: Antibacterial activity against Escherichia coli ATCC 25922 assessed as inhibition of bacterial growth incubated for 18 to 24 hrs; type: functional; details: time 18-24 hrs
Escherichia coli [5] = assay: Bactericidal activity against Escherichia coli ATCC 25922 assessed as inhibition of bacterial growth incubated for 18 to 24 hrs; type: functional; details: time 18-24 hrs
RAW264.7 = assay: Cytotoxicity against mouse RAW264.7 cells assessed as cell viability incubated for 48 hrs by MTT assay; type: functional
[6] = Binding affinity to AgrC-I extra-loop-III (unknown origin) assessed as dissociation constant incubated for 10 mins by isothermal titration calorimetry analysis
[7] = Binding affinity to AgrC-I extra-loop-I (unknown origin) assessed as change in enthalpy incubated for 10 mins by isothermal titration calorimetry analysis
[8] = Inhibition of quorum sensing system in Staphylococcus aureus ATCC 6538p assessed as downregulation of RNAIII expression level at 0.78 uM incubated for 24 hrs by qRT-PCR analysis
[9] = Inhibition of quorum sensing system in Staphylococcus saprophyticus ATCC BAA-750 assessed as downregulation of RNAIII expression level at 0.78 uM incubated for 24 hrs by qRT-PCR analysis
Erythrocyte = assay: Hemolytic activity in rat RBC assessed as hemolysis measured after 20 hrs; type: toxicity, cell-based
Staphylococcus aureus [10] = assay: Antivirulence activity against Staphylococcus aureus ATCC 6538p assessed as downregulation of RNAIII expression level at 2.5 uM measured for 28 passages by qRT-PCR analysis; type: functional, organism-based

Molecule `CC[C@H](C)[C@H](NC(=O)CNC(=O)CNC(=O)[C@@H](N)CSC1CC(=O)N(CCCCCC(=O)NCC(=O)N[C@H](C(=O)N[C@@H](CCCCN)C(=O)N[C@@H](CC(N)=O)C(=O)N[C@@H](CC(C)C)C(=O)N[C@@H](Cc2c[nH]c3ccccc23)C(=O)N[C@@H](CCCCN)C(=O)N[C@@H](CCCCN)C(=O)N[C@@H](CCSC)C(=O)N[C@H](C(=O)N[C@@H](CCCCN)C(=O)N[C@@H](CC(C)C)C(=O)N[C@@H](Cc2c[nH]c3ccccc23)C(=O)N[C@@H](Cc2ccc(O)cc2)C(=O)O)[C@@H](C)CC)[C@@H](C)CC)C1=O)C(=O)N[C@@H](CC(N)=O)C(=O)N[C@H]1CCNC(=O)[C@H](CC(C)C)NC(=O)[C@H](CC(C)C)NC(=O)[C@H](Cc2ccccc2)NC(=O)[C@H](C)NC1=O` (some centres not stated) (I: GIKNLWKKMIKLWY-OH / II: H-CGGIN[Dab]AFLL; linker I:N-II:1 via X1; lactam II:6-II:C) has an MBC (Staphylococcus aureus [1]) of 3.13 µM (≈ 9.4 µg/mL), an MBC (Staphylococcus aureus [2]) of 3.13 µM (≈ 9.4 µg/mL) and an MIC [3] of 3.13 µM (≈ 9.4 µg/mL). For the same molecule, the MIC (Escherichia coli [4]) was 3.13 µM (≈ 9.4 µg/mL), the MBC (Escherichia coli [5]) was 12.5 µM (≈ 37.5 µg/mL) and the CC50 (RAW264.7) was 71.1 µM. For the same molecule, the Kd [6] was 1 pM, the deltaH [7] was -4.7 kcal/mol and the inhibition [8] was “Active”. For the same molecule, the inhibition [9] was “inactive”, the Activity (Erythrocyte) was “Toxic” and the Activity (Staphylococcus aureus [10]) was “Active”.
